Source: PMC6222614, “Disubstituted 4-Chloro-3-nitrophenylthiourea Derivatives: Antimicrobial and Cytotoxic Studies” (Molecules : A Journal of Synthetic Chemistry and Natural …, 2018)
Where two headings read alike, the source gives them in different places.

Columns and labels:
HaCaT cells [1] = experiment: Proliferation rate in cultures of HaCaT cells (trypan blue counting); type: cell-based, human; details: lowest concentrations (8 µM for 11 and 13, 37 µM for 25), 48 h
Experimental: (§1) Human immortal keratinocyte cell line from adult human skin (HaCaT) was purchased from American Type Culture Collection (Rockville, MD, USA), and cultured in Dulbecco’s Modified Eagle’s Medium (DMEM), supplemented with antibiotics (penicillin and streptomycin), 10% heat-inactivated FBS-fetal bovine serum (Gibco Life Technologies, Carlsbad, CA, USA) at 37 °C and 5% CO2 atmosphere. Cells were passaged using trypsin-EDTA (Gibco Life Technologies, Carlsbad, CA, USA) and cultured in 24-well plates (2.5 × 10^4 cells per well). Experiments were conducted in DMEM with 2% FBS.
After 48 h incubation with the lowest concentration of the tested compound the increased number of viable cells were assessed by direct counting of cells using trypan blue with a Countess Automated Cell Counter (Invitrogen, Carlsbad, CA, USA). The results are presented as a % of viable and dead cells versus control.

HIV-1 IIIB = experiment: Anti-HIV-1 activity: protection of MT-4 cells from virus-induced cytopathogenicity (MTT); type: cell-based, Human Immunodeficiency Virus type-1; details: 50% protection of MT-4 cells from HIV-1 induced cytopathogenicity, MTT, 4-day incubation; read-out: HIV-1IIIB EC50
In short: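 MT-4 cells (1 × 10^4/well) infected with HIV-1 IIIB at m.o.i. 0.01 (100 CCID50) in presence of serial compound dilutions. Protection from virus-induced cytopathogenicity measured by MTT viability after 4 days at 37 °C.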

CRL7065 = experiment: Antiproliferative assay (MTT), normal cell line; type: cell-based, human; details: normal foreskin fibroblasts, concentration reducing cell proliferation by 50%, 96 h
Experimental: (§2) Cell lines derived from human solid tumors were: Skin melanoma (SK-MEL-28); prostate carcinoma (DU-145). Normal tissues foreskin fibroblasts (CRL-7065) were also used. Cells were seeded at 1 × 10^5 cells/mL in 96 well plates in specific media supplemented with 10% FCS and antibiotics, as above. Cell cultures were then incubated at 37 °C in a humidified, 5% CO2 atmosphere in the absence or presence of serial dilutions of test compounds. Cell viability was determined after 96 h at 37 °C by the MTT method.

SK-MEL-28 = experiment: Antiproliferative assay (MTT); type: cell-based, human; details: skin melanoma, concentration reducing cell proliferation by 50%, 96 h
Experimental: as §2

DU145 = experiment: Antiproliferative assay (MTT); type: cell-based, human; details: prostate carcinoma, concentration reducing cell proliferation by 50%, 96 h
Experimental: as §2

HaCaT cells [2] = experiment: Lactate dehydrogenase (LDH) release assay in HaCaT cells; type: cell-based; details: 24 h
Experimental: Cells were passaged using trypsin-EDTA (Gibco Life Technologies, Carlsbad, CA, USA) and cultured in 24-well plates (2.5 × 10^4 cells per well). Experiments were conducted in DMEM with 2% FBS.
Release of lactate dehydrogenase (LDH) from the cytosol to culture medium is a marker of cell death. The assay was performed after 24 h incubation of HaCaT cells in 24-well plates with investigated concentrations of each compound. The activity of LDH released from the cytosol of damaged cells to the supernatant was measured using the protocol of the cytotoxicity detection kit LDH test described by the manufacturer (Roche Diagnostics, Berlin, Germany). Absorbance was measured at 490 nm using a microplate reader (using Epoch microplate reader, BioTek Inc., Winooski, VT, USA) equipped with Gen5 software (BioTech Instruments, Inc., Biokom, Janki, Polska)
Compounds mediated cytotoxicity expressed as the LDH release (%) was determined by the following equation: [(A test sample—A low control)/(A high control—A low control)] × 100% (A-absorbance); where “low control” were cells in DMEM with 2% FBS without tested compounds, and “high control” were cells incubated in DMEM with 2% FBS with 10% Triton X-100 (100% LDH release).

WIL-2NS = experiment: Antiproliferative assay (MTT); type: cell-based, human; details: concentration reducing cell proliferation by 50%, 96 h, mean of three determinations
Experimental: (§3) Cell lines derived from human hematological tumors were: CD4+ human T-cells containing an integrated HTLV-1 genome (MT-4); CD4+ human acute T-lymphoblastic leukemia (CCRF-CEM); human splenic B-lymphoblastoid cells (WIL-2NS); human acute B-lymphoblastic leukemia (CCRF-SB). Cells were seeded at an initial density of 1 × 10^5 cells/mL in 96 well plates in RPMI-1640 medium supplemented with 10% fetal calf serum (FCS), 100 units/mL penicillin G and 100 μg/mL streptomycin.
as §2

CCRF-CEM = experiment: Antiproliferative assay (MTT); type: cell-based, human; details: concentration reducing cell proliferation by 50%, 96 h, mean of three determinations
Experimental: as §3, §2

CCRF-SB = experiment: Antiproliferative assay (MTT); type: cell-based, human; details: concentration reducing cell proliferation by 50%, 96 h, mean of three determinations
Experimental: as §3, §2

MT-4 = experiment: Antiproliferative assay (MTT); type: cell-based, human; details: concentration reducing cell proliferation by 50%, 96 h, mean of three determinations
Experimental: as §3, §2

MT-4 cells = experiment: Cytotoxicity against mock-infected MT-4 cells (MTT); type: cell-based, human; details: concentration reducing viability of mock-infected MT-4 cells by 50%, 96 h
In short: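 Uninfected MT-4 cells (HTLV-1-transformed human CD4+ T cells) seeded at 1 × 10^5 cells/mL in RPMI-1640 with 10% FBS and grown with serially diluted compounds at 37 °C, 5% CO2. Viability read by MTT after 96 h.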

HaCaT cells [3] = experiment: Cell viability in HaCaT cells (MTT mitochondrial reduction); type: cell-based, human
Experimental: as §1
The cell viability assay was assessed by the determination of MTT salt (3-(4,5-dimethylthiazol-2-yl)-2,5-diphenyltetrazolium bromide, Sigma-Aldrich Chemie, Buchs, Germany) conversion by mitochondrial dehydrogenase. […] Absorbance of solubilized formazan was measured spectrophotometrically at 570 nm (using Epoch microplate reader, BioTek Inc., Winooski, VT, USA, equipped with Gen5 software (BioTech Instruments, Inc., Biokom, Janki, Polska).
Cell viability was presented as a percent of MTT in the treated cells versus the control (cells incubated in serum-free DMEM without extracts). The relative MTT level (%) was calculated as [A]/[B] × 100, where [A] is the absorbance of the test sample and [B] is the absorbance of the control sample containing the untreated cells. […]

| Compound | inhibition of viable cell proliferation (HaCaT cells [1]) | EC50 (HIV-1 IIIB) [µM] | CC50 (CRL7065) [µM] | CC50 (SK-MEL-28) [µM] | CC50 (DU145) [µM] | cell mortality (LDH release) increased to (HaCaT cells [2]) [%] | LD10 (concentration at which 10% of cells were dead) (HaCaT cells [2]; LDH assay) [µM] | CC50 (WIL-2NS) [µM] | CC50 (CCRF-CEM) [µM] | CC50 (CCRF-SB) [µM] | CC50 (MT-4) [µM] | CC50 (MT-4 cells) [µM] | cytotoxicity (MTT) (HaCaT cells [3]) [%] | release of LDH (HaCaT cells [2]; concentrations 8 and 16 µM) [%] | cytotoxicity (MTT) (HaCaT cells [3]; HaCaT, 24 h, moderate according to ISO 10993-5) [%] | cytotoxicity as compared to the LD10 value (HaCaT cells [2]; all applied concentrations (37 µM and higher)) [fold] |
| --- | --- | --- | --- | --- | --- | --- | --- | --- | --- | --- | --- | --- | --- | --- | --- | --- |
| O=[N+]([O-])c1cc(NC(=S)Nc2ccc(Cl)c(Cl)c2)ccc1Cl [Compound 11] | ~65% | > 7.9 | 16 | 8.5 | 6 | 20 | 8 | 9.9 | 8 | 8.6 | 7.9 | 7.9 | – | – | – | – |
| Cc1ccc(NC(=S)Nc2ccc(Cl)c([N+](=O)[O-])c2)cc1Cl [Compound 13] | 30–40% | > 8 | 16 | 6 | 7 | 30 | – | 7.6 | 4 | 6.7 | 8 | 8 | 50 | ~10 | – | – |
| O=[N+]([O-])c1cc(NC(=S)NCc2ccccc2)ccc1Cl [Compound 25] | 30–40% | > 36.7 | – | – | – | – | – | – | – | – | – | 36.7 | – | – | 50 | 7 |
